Like-named read-outs stand apart in the source and are kept apart here.
Experiments:
HDAC6 = target: T1, HDAC6 (Homo sapiens, UniProt Q9UBN7)
T1 sequence (Q9UBN7 1-1215): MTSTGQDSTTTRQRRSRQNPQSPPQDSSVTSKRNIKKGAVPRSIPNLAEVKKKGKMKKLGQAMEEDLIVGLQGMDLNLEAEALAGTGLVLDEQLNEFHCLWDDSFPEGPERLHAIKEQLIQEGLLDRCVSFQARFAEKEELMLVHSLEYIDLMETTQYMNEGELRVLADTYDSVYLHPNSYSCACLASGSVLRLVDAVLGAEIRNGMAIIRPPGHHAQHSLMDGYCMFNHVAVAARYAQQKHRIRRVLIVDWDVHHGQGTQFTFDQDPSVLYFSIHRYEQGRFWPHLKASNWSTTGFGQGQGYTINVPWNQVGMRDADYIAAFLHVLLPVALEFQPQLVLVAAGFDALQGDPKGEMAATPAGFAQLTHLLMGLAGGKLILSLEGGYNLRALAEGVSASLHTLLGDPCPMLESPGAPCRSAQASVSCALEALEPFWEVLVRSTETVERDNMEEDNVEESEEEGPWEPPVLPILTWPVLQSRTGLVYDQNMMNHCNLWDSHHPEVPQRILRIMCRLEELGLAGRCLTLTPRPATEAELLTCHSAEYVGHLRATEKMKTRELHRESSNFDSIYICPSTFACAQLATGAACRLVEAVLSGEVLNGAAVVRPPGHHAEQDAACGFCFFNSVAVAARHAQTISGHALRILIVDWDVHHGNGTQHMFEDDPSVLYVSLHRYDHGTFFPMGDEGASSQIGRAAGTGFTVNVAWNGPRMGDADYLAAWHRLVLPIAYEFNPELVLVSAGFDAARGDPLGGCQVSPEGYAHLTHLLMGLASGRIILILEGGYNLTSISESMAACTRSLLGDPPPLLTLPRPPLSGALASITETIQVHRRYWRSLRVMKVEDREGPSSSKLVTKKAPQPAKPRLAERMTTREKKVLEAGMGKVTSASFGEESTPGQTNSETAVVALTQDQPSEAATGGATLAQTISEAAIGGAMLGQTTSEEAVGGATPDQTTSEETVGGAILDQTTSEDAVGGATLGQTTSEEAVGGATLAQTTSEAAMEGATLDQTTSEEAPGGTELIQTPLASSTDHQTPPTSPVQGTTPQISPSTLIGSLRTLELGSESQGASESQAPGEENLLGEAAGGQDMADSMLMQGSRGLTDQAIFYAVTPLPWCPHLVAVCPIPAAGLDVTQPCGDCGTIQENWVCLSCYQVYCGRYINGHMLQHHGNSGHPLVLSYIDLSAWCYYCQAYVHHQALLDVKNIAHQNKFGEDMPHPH
Experimental: Test materials were stored at room temperature and stock solutions were prepared at 20 mg/ml in DMSO. Further dilutions were made in sterile distilled water immediately before being added to the reaction mixture containing a substrate, and the reaction was triggered by the addition of purified HDAC enzymes, Double distilled water was the negative control and trichostatin (1.5 ug/ml) was used as a positive control for validation of each study. The test procedure was as directed in the assay kits. The products of the reactions were measured by fluorometry at ex/em 350/450 nm using multi-well plate fluorometer Cytofluor 4000 (Applied Biosystem, Foster City, CA) or using SpectraMax i3× Multi-Mode Detection Platform from Molecular Devices (Sunnyvale, CA).
Statistical significance was assessed with a two-tail Student test. Deviations of ≤20% as compared to water control with p values below 0.05 were considered statistically significant.

[1] = tested on: EpiDermFT (Mattek full thickness) dermal substitutes; conditions: versus control
Experimental: The experiments were performed using EpiDermFT (Mattek full thickness) dermal substitutes. Sequencing data was generated by Azenta Life Sciences (HiSeq 2×150 bp) and analyses performed using raw FastQ files provided by Azenta.

NFκB = assay: NF-κB luminance reporter assay, TNFα activated; type: cell-based, Murine
Source text: NFκB expression was quantified from the luminance signals released from cells treated with the test products and the control (untreated).

COX-2 = target: T2, COX-2 (Homo sapiens, UniProt P35354)
T2 sequence (P35354 18-604): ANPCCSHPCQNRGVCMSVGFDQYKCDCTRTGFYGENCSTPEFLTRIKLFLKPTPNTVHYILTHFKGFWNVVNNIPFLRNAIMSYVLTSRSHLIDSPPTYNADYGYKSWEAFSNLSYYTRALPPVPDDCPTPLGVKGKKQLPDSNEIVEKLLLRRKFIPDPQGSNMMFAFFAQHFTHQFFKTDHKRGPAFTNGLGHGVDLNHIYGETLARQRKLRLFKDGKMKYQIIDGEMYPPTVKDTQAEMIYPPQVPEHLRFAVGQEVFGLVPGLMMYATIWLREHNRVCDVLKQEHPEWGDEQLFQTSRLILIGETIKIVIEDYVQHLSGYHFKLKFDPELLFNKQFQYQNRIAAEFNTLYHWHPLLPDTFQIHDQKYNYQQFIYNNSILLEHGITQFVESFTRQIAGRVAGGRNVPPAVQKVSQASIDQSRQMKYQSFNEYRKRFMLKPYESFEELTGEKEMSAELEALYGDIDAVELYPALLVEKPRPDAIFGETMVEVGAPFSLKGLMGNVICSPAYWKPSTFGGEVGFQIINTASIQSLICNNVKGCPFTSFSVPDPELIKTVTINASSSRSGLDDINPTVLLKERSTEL
Experimental: A 0.1 gram sample of each test material was dissolved in 1 mL propanediol make a stock solution, each of which was subject to 1 to 2 serial dilutions using buffer for use in determining the IC50 Testing and analysis was performed in accordance with the protocol of the COX-2 Kt (Cayman Catalog #701080) (Cayman catalog #62160).

Telomerase = Telomerase Activity Quantification qPCR Assay in human dermal fibroblasts; type: cell-based; conditions: three days
Experimental: Normal neonatal human dermal fibroblasts (HDF cat, #2310; ScienCell, Oceanside, CA) were grown to confluence in the 6 well plate format and incubated with the test substances identified in Table 3 for three days. Following incubation, the cells were lysed and telomerase activity was determined with Telomerase Activity Quantification qPCR Assay Kit from ScienCell (cat. #8928). Forget-Me-Not™ EvaGreen® qPCR Master Mix (Low ROX) (Biotium, Fremont, CA) was used for real-time quantitative PCR on C1000 Touch System with CFX384™ optical module Detection. For quantifying the level of activity, the Comparative Cq method was used, following the equation: […]
where TPS is telomere primer set, which recognizes and amplifies newly synthesized telomere sequences and Cq(TPS) is the Quantification Cycle Value obtained from the qPCR software. The relative telomerase activity difference between the experimental condition and control is expressed as 2^−ΔCq Telomerase activity was considered different if the level of expression was reasonably high (Cq≤33 cycles to detect), the difference vs. control was >2 fold and the p value, assessed with two-tailed Student test, was <0.05.

| Compound | HDAC 6 activity, % of water-treated controls (HDAC6; 5 ug/ml) [%] | HDAC 6 activity, % of water-treated controls (HDAC6; 25 ug/ml) [%] | HDAC 6 activity, % of water-treated controls (HDAC6; 50 ug/ml) [%] | HDAC 6 activity, % of water-treated controls (HDAC6; 100 ug/ml) [%] | HDAC 6 activity, % of water-treated controls (HDAC6; 200 ug/ml) [%] | expression of FABP3 [1] | expression of late differentiation marker gene FLG [1] | expression of late differentiation marker gene IVL [1] | expression of late differentiation marker gene LOR [1] | expression of late differentiation marker gene SPINK5 [1] | expression of late differentiation marker gene TGM1 [1] | COX-2 IC50 (COX-2) [µg/mL] | Average Cq(TPS) (Telomerase; 50 μg/ml) | Telomerase Activity (FC vs. water) (Telomerase; 50 μg/ml) [FC] | ΔCq sample-water (Telomerase; 50 μg/ml) | further results |
| --- | --- | --- | --- | --- | --- | --- | --- | --- | --- | --- | --- | --- | --- | --- | --- | --- |
| CCCC(=O)N[C@@H](CC(C)C)C(=O)[O-].CCCC(=O)N[C@@H](CC(C)C)C(=O)[O-].[Zn+2] [Zn di-(n-butyryl leucinate), Zinc di-(n-butyryl leucinate)] | 20 | 20 | 21 | 20 | 17 | – | – | – | – | – | – | – | – | – | – | – |
| CCCC(=O)NCCCC[C@H](NC(=O)CCC)C(=O)[O-].CCCC(=O)NCCCC[C@H](NC(=O)CCC)C(=O)[O-].[Zn+2] [Zn di-(di-n-butyryl lysinate), Zinc di-(di-n-butyryl lysinate)] | 25 | 18 | 19 | 21 | 19 | repressed | increased expression | increased expression | increased expression | increased expression | increased expression | 82.3 | 30.0 | 14.6 | 3.9 | activity of S100 calcium binding protein P (S100P) [1]: strongly increased; activity of late cornified envelope 3D (LCE3D) [1]: strongly increased; activity of late cornified envelope 3E (LCE3E) [1]: strongly increased; activity of small protein reach repeat (SPRR28) [1]: strongly increased; expression of early differentiation marker gene DSC1 [1]: increasing the expression; expression of early differentiation marker gene KRT1 [1]: increasing the expression; expression of early differentiation marker gene KRT10 [1]: increasing the expression; IC50 in inhibiting NFκB (NFκB; C2C12 reporter cells, TNFα as activator): 70.4 µg/mL; fold more effective than Na butyrate in inhibiting NFκB (NFκB; ratio of IC50 values): about 110 fold; Average Cq(TPS) (Telomerase; 10 μg/ml): 30.7; Telomerase Activity (FC vs. water) (Telomerase; 10 μg/ml): 8.9 FC; ΔCq sample-water (Telomerase; 10 μg/ml): 3.2 |
| CCCC(=O)[O-].[Na+] [Sodium butyrate, reference compound] | – | – | 107 | 110 | 92 | – | – | – | – | – | – | – | 34.3 | 0.7 | −0.5 | IC50 (NFκB; Mus musculus, C2C12 reporter cells, TNFα as activator, read-out: IC50 in inhibiting NFκB): 7700 µg/mL; HDAC 6 activity, % of water-treated controls (HDAC6; 400 ug/ml): 102%; Average Cq(TPS) (Telomerase; 100 μg/ml): 33.7; Telomerase Activity (FC vs. water) (Telomerase; 100 μg/ml): 1.1 FC; ΔCq sample-water (Telomerase; 100 μg/ml): 0.1 |
| CCCC(=O)NCCCCC(NC(=O)CCC)C(=O)[O-].CCCC(=O)NCCCCC(NC(=O)CCC)C(=O)[O-].[Ca+2] (centres unmarked) [Ca di-(di-n-butyryl lysinate), calcium di-(di-n-butyryl lysinate)] | 105 | 97 | 124 | 128 | 134 | repressed | increased expression | increased expression | increased expression | increased expression | increased expression | 111.0 | – | – | – | activity of late cornified envelop (LCE2D) [1]: strongly increased; activity of late cornified envelope (LCE3A) [1]: strongly increased |
| Zinc Di-lysinate [Zn dilysinate] | 22 | 16 | 17 | 14 | 8 | – | – | – | – | – | – | – | – | – | – | – |

— patent publication US20260041620A1, “NOVEL AMINO ACID BASED SALTS, COMPOSITIONS AND METHODS FOR TREATING SKIN AND IMPROVING SKIN REJUVENATION AND LONGEVITY” (Sytheon Ltd, priority 2023, published 2026)
